Measured values as given in US20150104868A1, “Methods of Maintaining and Improving Biological Cell Function and Activity” (GARGILL INCORPORATED, priority 2012, published 2015).

Tested on: CRL 1730 HUVECs
Assay: Microarray transcriptomics of HUVEC (HGERT/HG, HG/NG)
Type: cell-based, human
Settings: HUVEC; 5 mM ERT + 30 mM glucose vs 30 mM glucose

## OC[C@@H](O)[C@@H](O)CO [ERT, meso-1,2,3,4-tetrahydroxybutane]
  HGERT/HG transcript DAP: Ψ 1.01
  HGERT/HG transcript DBT: Ψ 1.01
  HGERT/HG transcript DCAKD: Ψ 1.03
  HGERT/HG transcript DDX54: 0.99 Ω
  HGERT/HG transcript DYNLT1: 0.99 Ω
  HGERT/HG transcript EID2: 0.99
  HGERT/HG transcript ENG: Ψ 1.01
  HGERT/HG transcript ESD: 0.99 Ω
  HGERT/HG transcript FASTKD1: 0.99 Ω
  HGERT/HG transcript FASTKD3: 0.99 Ω
  HGERT/HG transcript FBLIM1: Ψ 1.02
  HGERT/HG transcript FOXC1: Ψ 1.01
  HGERT/HG transcript FURIN: Ψ 1.02
  HGERT/HG transcript GJC1: Ψ 1.02
  HGERT/HG transcript GNAI2: Ψ 1.02
  HGERT/HG transcript GOLGA2: Ψ 1.04
  HGERT/HG transcript GPR124: Ψ 1.02
  HGERT/HG transcript GSN: Ψ 1.03
  HGERT/HG transcript HADH: 0.99
  HGERT/HG transcript HIATL1: 0.99
  HGERT/HG transcript HIG2: Ψ 1.01
  HGERT/HG transcript HIP1: Ψ 1.05
  HGERT/HG transcript HLTF: 0.99 Ω
  HGERT/HG transcript HPCAL1: Ψ 1.01
  HGERT/HG transcript HSPE1: 0.99 Ω
  HGERT/HG transcript IFI6: Ψ 1.13
  HGERT/HG transcript IFT20: 1.00 Ω
  HGERT/HG transcript KIDINS220: Ψ 1.01
  HGERT/HG transcript KIF1B: Ψ 1.01
  HGERT/HG transcript LIMK1: Ψ 1.01
  HGERT/HG transcript LUC7L2: 0.99
  HGERT/HG transcript LYN: Ψ 1.02
  HGERT/HG transcript MAGED1: 1.00 Ω
  HGERT/HG transcript MAP4K3: 0.98 Ω
  HGERT/HG transcript MARK2: Ψ 1.03
  HGERT/HG transcript MBIP: 0.98
  HGERT/HG transcript MFSOL: 0.99
  HGERT/HG transcript MTM1: 0.98
  HGERT/HG transcript MYST4: Ψ 1.03
  HGERT/HG transcript Magmas: 0.98
  HGERT/HG transcript NAP8: 0.98
  HGERT/HG transcript NCK2: Ψ 1.01
  HGERT/HG transcript NDE1: Ψ 1.01
  HGERT/HG transcript NDUFA4: 0.99
  HGERT/HG transcript NOTCH1: Ψ 1.02
  HGERT/HG transcript OTUD5: Ψ 1.01
  HGERT/HG transcript OXCT1: 0.99
  HGERT/HG transcript PAQR3: 0.98 Ω
  HGERT/HG transcript PDCD7: Ψ 1.02
  HGERT/HG transcript PDIA5: Ψ 1.01
  HGERT/HG transcript PHF16: 0.99
  HGERT/HG transcript PITRM1: Ψ 1.01
  HGERT/HG transcript PLCD4: 0.99
  HGERT/HG transcript PLEC1: Ψ 1.03
  HGERT/HG transcript PLEK2: 0.96 Ω
  HGERT/HG transcript PLEKHA3: 0.99
  HGERT/HG transcript PRRX1: Ψ 1.01
  HGERT/HG transcript PXN: Ψ 1.01
  HGERT/HG transcript RHOB: Ψ 1.02
  HGERT/HG transcript RNF20: 0.99
  HGERT/HG transcript RP2: 0.98 Ω
  HGERT/HG transcript RPS6KA2: Ψ 1.01
  HGERT/HG transcript RSU1: 0.99 Ω
  HGERT/HG transcript SACM1L: 0.98
  HGERT/HG transcript SAMHD1: Ψ 1.07
  HGERT/HG transcript SAMM50: 0.99
  HGERT/HG transcript SCFD1: 0.99
  HGERT/HG transcript SDHC: 0.96 Ω
  HGERT/HG transcript SDHD: 0.98 Ω
  HGERT/HG transcript SEC31A: Ψ 1.01
  HGERT/HG transcript SEC61G: 0.99
  HGERT/HG transcript SENP3: Ψ 1.01
  HGERT/HG transcript SESTD1: Ψ 1.01
  HGERT/HG transcript SETD3: 0.99
  HGERT/HG transcript SFT2D2: 0.98
  HGERT/HG transcript SFXN4: 0.98
  HGERT/HG transcript SH3PXD2B: Ψ 1.01
  HGERT/HG transcript SLC2A12: Ψ 1.03
  HGERT/HG transcript SLC25A24: 0.99 Ω
  HGERT/HG transcript SLC25A43: 0.98
  HGERT/HG transcript SLC30A6: 0.99
  HGERT/HG transcript SLC41A2: 0.99
  HGERT/HG transcript SLK: 0.99 Ω
  HGERT/HG transcript SMOX: 0.99 Ω
  HGERT/HG transcript SNX3: 0.99
  HGERT/HG transcript SNX14: 0.99
  HGERT/HG transcript SOAT1: 0.97 Ω
  HGERT/HG transcript SOS1: Ψ 1.06
  HGERT/HG transcript STK39: 0.98 Ω
  HGERT/HG transcript STXBP3: 0.98
  HGERT/HG transcript SUCLA2: 0.99 Ω
  HGERT/HG transcript SUDS3: 0.99
  HGERT/HG transcript TACC1: Ψ 1.01
  HGERT/HG transcript TCEAL1: 0.99 Ω
  HGERT/HG transcript TCF12: 0.99 Ω
  HGERT/HG transcript TGM2: Ψ 1.01
  HGERT/HG transcript TIMM8B: 0.99
  HGERT/HG transcript TIMP2: Ψ 1.01
  HGERT/HG transcript TMEM14C: 0.99
